Results taken from the supplement of paper PMC10307832.

What was measured:
Assay in all cases: relative viability (nuclei count vs DMSO), 5 days (fraction); higher = more cells survive
[1] = compound: CCC1=CN=CN=C1N2CCN(CC2)CC3=NC4=C(N3)C=C(C=C4)C(F)(F)F + Nc1ncn([C@H]2C[C@H](O)[C@@H](CO)O2)c(=O)n1 [Decitabine] (partner 2 µM)
In short: (§1)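 Lung cancer cell lines in 1536-well plates got either a single drug or a fixed anchor-drug dose together with five library-drug doses (not always all listed) in √10 steps, by pin tool, on the day after seeding. Nuclei were counted after 5 days, and relative viability is the treated-to-vehicle ratio of nuclei counts. Values are medians of duplicate plates.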

[2] = compound: CCn1c(-c2nonc2N)nc2cnc(Oc3cccc(NC(=O)c4ccc(OCCN5CCOCC5)cc4)c3)cc21 + Cc1nc(Nc2ncc(C(=O)Nc3c(C)cccc3Cl)s2)cc(N2CCN(CCO)CC2)n1 [Dasatinib] (partner 0.075 µM)
In short: as §1

[3] = compound: N=C1NC(=O)/C(=C/c2ccc(O)cc2)S1 [Mirin] + CC(=O)Nc1cccc(-n2c(=O)n(C3CC3)c(=O)c3c(Nc4ccc(I)cc4F)n(C)c(=O)c(C)c32)c1 [Trametinib] (partner 0.02 µM)
In short: as §1

[4] = compound: N=C1NC(=O)/C(=C/c2ccc(O)cc2)S1 [Mirin] + CC(C)C[C@H](NC(=O)[C@H](Cc1ccccc1)NC(=O)c1cnccn1)B(O)O [Bortezomib] (partner 0.002 µM)
In short: as §1

Cell Line | relative viability ([1]; first compound 0.04 µM) | relative viability ([1]; first compound 0.1265 µM) | relative viability ([1]; first compound 0.4 µM) | relative viability ([1]; first compound 1.265 µM) | relative viability ([1]; first compound 4 µM) | relative viability ([2]; first compound 0.04 µM) | relative viability ([2]; first compound 0.1265 µM) | relative viability ([2]; first compound 1.265 µM) | relative viability ([2]; first compound 4 µM) | relative viability ([3]; first compound 0.25 µM) | relative viability ([3]; first compound 0.7906 µM) | relative viability ([3]; first compound 2.5 µM) | relative viability ([3]; first compound 7.906 µM) | relative viability ([3]; first compound 25 µM) | relative viability ([4]; first compound 0.25 µM) | relative viability ([4]; first compound 0.7906 µM) | relative viability ([4]; first compound 2.5 µM) | relative viability ([4]; first compound 7.906 µM) | relative viability ([4]; first compound 25 µM) | relative viability ([2]; first compound 0.4 µM)
NCI-H441 | 0.239 | 0.212 | 0.21 | 0.264 | 0.315 | 0.635 | 0.683 | 0.685 | 0.549 | 0.528 | 0.404 | 0.428 | 0.557 | 0.508 | 0.387 | 0.645 | 0.449 | 0.314 | 0.409 | –
NCI-H727 | 0.798 | 0.875 | 0.956 | 0.655 | 0.941 | 0.507 | 0.621 | 0.467 | 0.521 | 0.443 | 0.348 | 0.41 | 0.341 | 0.34 | 1.24 | 1.18 | 0.832 | 0.997 | 0.907 | 0.405
NCI-H23 | 0.288 | 0.31 | 0.282 | 0.252 | 0.358 | 0.927 | 0.758 | 0.611 | 0.543 | 0.358 | – | 0.384 | 0.279 | 0.298 | 1.3 | – | 1.15 | 0.842 | 0.817 | 0.294
NCI-H596 | 1 | 1.01 | 0.958 | 0.853 | 1.06 | 0.682 | 0.611 | 0.469 | 0.546 | 0.872 | 0.77 | 0.763 | 0.873 | 0.835 | 1.12 | – | 0.982 | 1 | 0.905 | 0.495
NCI-H460 | 0.535 | 0.424 | 0.496 | 0.435 | 0.452 | 0.467 | 0.288 | 0.136 | 0.112 | 0.142 | 0.172 | 0.206 | 0.102 | 0.171 | 1.22 | 1.2 | 1.21 | 1.12 | 1.15 | 0.154
